Measurements from patent US10029982B2, “Light absorptive compound, polymer composition containing the compound, polymer film, and cured layer” (Sumitomo Chemical Company, Limited, priority 2015, dated 2018).

Assays:
[1] = Solubility test in various solvents; format: physicochemical; settings: room temperature 25±3° C., visually confirmed 60 minutes after preparation; for Solubility in various solvents MEK: 2-butanone; for Solubility in various solvents IPA: 2-propanol; for Solubility in various solvents CHF: chloroform; for Solubility in various solvents EAC: ethyl acetate; for Solubility in various solvents PGMEA: propylene glycol monomethyl ether acetate; for Solubility in various solvents TOL: toluene
Method: The compound UVA-01 (50 mg) obtained by the method described in Synthesis Example 1 was mixed with 450 mg of the solvent described below to prepare a 10% by mass solution. […] Also, 50 mg of UVA-01 was mixed with 950 mg of the solvent described below to prepare a 5% by mass solution, and the same solubility test was performed. The solubility of the compound UVA-01 was visually confirmed in 60 minutes after preparation of each solution. Incidentally, the criteria for evaluation of the test results are as follows.
A: soluble by 10% by mass or more
B: soluble by 5% by mass or more and less than 10% by mass
C: soluble by less than 5% by mass
2-butanone (manufactured by KANTO CHEMICAL CO., INC., hereinafter abbreviated as MEK) 2-propanol (manufactured by NACALAI TESQUE, INC., hereinafter abbreviated as IPA) toluene (manufactured by NACALAI TESQUE, INC., hereinafter abbreviated as TOL) ethyl acetate (manufactured by NACALAI TESQUE, INC., hereinafter abbreviated as EAC) chloroform (manufactured by KANTO CHEMICAL CO., INC., hereinafter abbreviated as CHF) propylene glycol monomethyl ether acetate (manufactured by Tokyo Chemical Industry Co., Ltd., hereinafter abbreviated as PGMEA) The solubility test was performed in the same manner as in Example 1 except for replacing UVA-01 with UVA-02 or UVA-03.
The solubility test was performed in the same manner as in Example 1 except for replacing UVA-01 with UVA-R01.

[2] = Absorption measurement of the compound with spectrophotometer UV-3150; format: physicochemical; settings: in 2-butanone
Excerpt: The compound (I) preferably satisfies the following formula (a). ε(420)/ε(400)≤0.4 (a)
The smaller value offers a transparent compound with less yellowness.
Also, the compound (I) preferably satisfies the following formulae (b) and (c) in addition to the formula (a). λmax<420 nm (b) ε(400)≥40 (c)
In the formula (b), λmax denotes maximum absorption wavelength of the compound (I). In the formula (c), ε(400) denotes gram absorption coefficient at a wavelength of 400 nm, and the unit of gram absorption coefficient is defined by L/(g·cm). […]
A compound UVA-R01 was synthesized in accordance with the method described in Patent Literature (DE101 09 243 A1). Refinement was performed by subjecting the solution to column chromatography (silica gel). When absorption maximum wavelength (λmax) was measured by using a spectrophotometer UV-3150 (manufactured by SHIMADZU CORPORATION), the results were such that λmax=389 nm (in 2-butanone), ε(400) was 146 L/(g·cm), and ε(420)/ε(400) was 0.0122. Then, the following peaks were observed through ^1H-NMR analysis, so that it was confirmed that the compound UVA-R01 was produced.

Structure (SMILES)	Solubility in various solvents MEK [1]	Solubility in various solvents IPA [1]	Solubility in various solvents CHF [1]	Solubility in various solvents EAC [1]	Solubility in various solvents PGMEA [1]	Solubility in various solvents TOL [1]	absorption maximum wavelength (λmax) [2]	ε(400), gram absorption coefficient at a wavelength of 400 nm [2]	ε(420)/ε(400) [2]
CCOCCOC(=O)/C(C#N)=C\C=C1/CCCN1C [UVA-01]	A (soluble by 10% by mass or more)	A (soluble by 10% by mass or more)	A (soluble by 10% by mass or more)	A (soluble by 10% by mass or more)	A (soluble by 10% by mass or more)	A (soluble by 10% by mass or more)	389 nm	125 L/g/cm	0.0153
COCCOCCOCCOC(=O)/C(C#N)=C\C=C1/CCCN1C [UVA-02]	A (soluble by 10% by mass or more)	A (soluble by 10% by mass or more)	A (soluble by 10% by mass or more)	A (soluble by 10% by mass or more)	A (soluble by 10% by mass or more)	A (soluble by 10% by mass or more)	388 nm	95.2 L/g/cm	0.0161
CCCCC(CC)COC(=O)/C(C#N)=C\C=C1/CCCN1C (stereo not drawn) [UVA-03]	A (soluble by 10% by mass or more)	A (soluble by 10% by mass or more)	A (soluble by 10% by mass or more)	A (soluble by 10% by mass or more)	B (soluble by 5% by mass or more and less than 10% by mass)	A (soluble by 10% by mass or more)	389 nm	108 L/g/cm	0.0132
CCOC(=O)/C(C#N)=C\C=C1/CCCN1C [UVA-R01, reference compound]	C (soluble by less than 5% by mass)	C (soluble by less than 5% by mass)	C (soluble by less than 5% by mass)	C (soluble by less than 5% by mass)	C (soluble by less than 5% by mass)	C (soluble by less than 5% by mass)	389 nm	146 L/g/cm	0.0122
